Experiments:
rabbit [1] = details: Prenatal developmental toxicity study, himalayan, Injection, Intravenous, dose end: 18 GD
mouse [2] = details: Subchronic oral toxicity in rodents, other, Gavage/Intubation, dose end: 90 day, group: systemic
rat [3] = details: Fertility (Segment I); wistar; Injection; Intravenous; dose end: 7 GD; group: parental; systemic / in life observation / clinical signs / motor activity + systemic / in life observation / clinical signs / urine, discoloration + …
rat [4] = details: Chronic toxicity, wistar, Oral, Gavage/Intubation, dose end: 6 month, group: systemic
mouse [5] = details: Carcinogenicity, other, Oral, Gavage/Intubation, dose end: 106 week, group: systemic
rat [6] = details: Carcinogenicity, wistar, Oral, Gavage/Intubation, dose end: 24 month, group: systemic
dog [7] = details: Sub-acute repeat dose toxicity, beagle, Injection, Intravenous, dose end: 4 week, group: systemic
rat [8] = details: Subchronic oral toxicity in rodents, wistar, Gavage/Intubation, dose end: 90 day, group: systemic
dog [9] = details: Subchronic oral toxicity in nonrodent; beagle; Injection; Intravenous; dose end: 3 month; group: systemic; systemic / hematology / erythrocyte (rbc) count differential / erythrocyte (rbc) + systemic / hematology / hematocrit (hct) / hematocrit (…
rat [10] = details: Peri- and post-natal toxicity study (Segment III); wistar; Injection; Intravenous; dose end: 21 PND; group: parental; systemic / in life observation / body weight / body weight gain + systemic / in life observation / clinical signs / motor activity + …
rat [11] = details: Chronic toxicity, sprague dawley, Oral, Feed, dose end: 104 week, group: systemic
rabbit [12] = details: Prenatal developmental toxicity study, new zealand white, Oral, Gavage/Intubation, dose end: 19 GD, group: maternal
rat [13] = details: Subchronic oral toxicity in rodents, sprague dawley, Feed, dose end: 90 day, group: systemic, systemic / pathology microscopic / stomach / hyperkeratosis + systemic / pathology microscopic / stomach / hyperplasia
mouse [14] = details: Carcinogenicity, cd1, Oral, Feed, dose end: 104 week, group: systemic
rat [15] = details: Sub-acute dermal toxicity, fischer, Topical, dose end: 21 day, group: systemic, systemic / in life observation / clinical signs / desquamation + systemic / pathology microscopic / skin / hyperkeratosis + systemic / …
rat [16] = details: Subchronic oral toxicity in rodents, sprague dawley, Feed, dose end: 90 day, group: systemic, systemic / organ weight / adrenal gland / absolute + systemic / organ weight / adrenal gland / relative to body weight + systemic / organ …
mouse [17] = details: Subchronic oral toxicity in rodents, cd1, Feed, dose end: 90 day, group: systemic
rat [18] = details: Chronic toxicity, fischer, Oral, Feed, dose end: 104 week, group: systemic
[19] = group: developmental, developmental / developmental malformation / general / crown-rump length + systemic / in life observation / body weight / fetal weight
[20] = group: maternal, systemic / in life observation / body weight / body weight gain + systemic / in life observation / clinical signs / [other] + systemic / in …
[21] = systemic / organ weight / liver / relative to body weight + systemic / organ weight / kidney / absolute
[22] = systemic / hematology / reticulocyte / reticulocyte + systemic / in life observation / clinical signs / teeth whitening + systemic / in life…
[23] = systemic / in life observation / clinical signs / tooth-broken
[24] = systemic / hematology / erythrocyte (rbc) count differential / erythrocyte (rbc) + systemic / hematology / hematocrit (hct) / hematocrit (…
[25] = systemic / hematology / leukocyte (wbc) count differential / leukocyte (wbc) + systemic / organ weight / kidney / relative to body weight
[26] = systemic / in life observation / clinical signs / salivation + systemic / organ weight / liver / relative to body weight + systemic / in …
[27] = systemic / pathology microscopic / stomach / neoplasm nos + systemic / hematology / hematocrit (hct) / hematocrit (hct) + systemic / …
[28] = systemic / in life observation / clinical signs / vomitting + systemic / organ weight / prostate / nos
[29] = systemic / clinical chemistry / urea nitrogen / urea + systemic / hematology / blood clotting / blood clotting - clotting time + systemic / …
[30] = systemic / clinical chemistry / potassium / potassium
[31] = systemic / clinical chemistry / potassium / potassium + systemic / clinical chemistry / albumin / albumin + systemic / clinical chemistry / …
[32] = systemic / in life observation / clinical signs / anorexia + systemic / in life observation / clinical signs / no feces
[33] = systemic / pathology microscopic / kidney / hyperplasia + systemic / pathology microscopic / stomach / carcinoma + systemic / pathology …
[34] = systemic / pathology gross / urinary bladder / lesion(s) (nos)
[35] = systemic / pathology microscopic / kidney / hyperplasia + systemic / pathology microscopic / kidney / karyomegaly + systemic / in life …
[36] = systemic / pathology microscopic / kidney / karyomegaly

Q: With `CC(C)c1ccc(C(=O)N=C(N)N)cc1S(C)(=O)=O.CS(=O)(=O)O` [Cariporide mesylate] as the compound, how does the LEL (rabbit [1]; [19]) read?
A: 40 mg/kg/day

Q: What about the LOAEL (rabbit [1]; [19]) of the same compound?
A: > 40 mg/kg/day

Q: What about the NEL (rabbit [1]; [19]) of the same compound?
A: 16 mg/kg/day

Q: And the NOAEL (rabbit [1]; [19])?
A: ≥ 40 mg/kg/day

Q: What about the LOAEL (rabbit [1]; [20]) of the same compound?
A: > 40 mg/kg/day

Q: What about the NEL (rabbit [1]; [20]) of the same compound?
A: 6.3 mg/kg/day

Q: And the NOAEL (rabbit [1]; [20])?
A: ≥ 40 mg/kg/day

Q: And the LEL (rabbit [1]; group: maternal, systemic / in life observation / clinical signs / piloerection + systemic / in life observation / food consumption / food consumption)?
A: 16 mg/kg/day

Q: What about the NOAEL (mouse [2]; systemic / organ weight / liver / relative to body weight + systemic / in life observation / clinical signs / abnormal gait + systemic / in …) of the same compound?
A: 250 mg/kg/day

Q: And the LEL (mouse [2]; [21])?
A: 250 mg/kg/day

Q: And the LOAEL (mouse [2]; [21])?
A: 500 mg/kg/day

Q: And the NEL (mouse [2]; [21])?
A: < 250 mg/kg/day

Q: What about the LEL (rat [3]) of the same compound?
A: 100 mg/kg/day

Q: And the LOAEL (rat [3])?
A: > 100 mg/kg/day

Q: What about the NEL (rat [3]) of the same compound?
A: 25 mg/kg/day

Q: And the NOAEL (rat [3])?
A: ≥ 100 mg/kg/day

Q: What about the LOAEL (rat [4]; [22]) of the same compound?
A: 25 mg/kg/day

Q: And the NOAEL (rat [4]; [22])?
A: 5 mg/kg/day

Q: And the LEL (rat [4]; [23])?
A: 5 mg/kg/day

Q: And the NEL (rat [4]; [23])?
A: < 5 mg/kg/day

Q: What about the LOAEL (mouse [5]; [24]) of the same compound?
A: > 500 mg/kg/day

Q: What about the NOAEL (mouse [5]; [24]) of the same compound?
A: ≥ 500 mg/kg/day

Q: What about the LEL (mouse [5]; [25]) of the same compound?
A: 50 mg/kg/day

Q: And the NEL (mouse [5]; [25])?
A: < 50 mg/kg/day

Q: And the LEL (rat [6]; [26])?
A: 12 mg/kg/day

Q: What about the NEL (rat [6]; [26]) of the same compound?
A: < 12 mg/kg/day

Q: What about the LOAEL (rat [6]; [27]) of the same compound?
A: > 400 mg/kg/day

Q: What about the NOAEL (rat [6]; [27]) of the same compound?
A: ≥ 400 mg/kg/day

Q: What about the NEL (dog [7]; systemic / in life observation / clinical signs / vomitting) of the same compound?
A: 5 mg/kg/day

Q: And the LEL (dog [7]; [28])?
A: 20 mg/kg/day

Q: What about the LOAEL (dog [7]; [28]) of the same compound?
A: > 20 mg/kg/day

Q: What about the NOAEL (dog [7]; [28]) of the same compound?
A: ≥ 20 mg/kg/day

Q: And the LOAEL (rat [8]; [29])?
A: 100 mg/kg/day

Q: What about the NEL (rat [8]; [29]) of the same compound?
A: 5 mg/kg/day

Q: And the NOAEL (rat [8]; [29])?
A: 22 mg/kg/day

Q: What about the LEL (rat [8]; systemic / organ weight / liver / relative to body weight) of the same compound?
A: 22 mg/kg/day

Q: And the LEL (dog [9])?
A: 1.25 mg/kg/day

Q: And the LOAEL (dog [9])?
A: > 20 mg/kg/day

Q: What about the NEL (dog [9]) of the same compound?
A: < 1.25 mg/kg/day

Q: What about the NOAEL (dog [9]) of the same compound?
A: ≥ 20 mg/kg/day

Q: What about the LEL (rat [10]) of the same compound?
A: 125 mg/kg/day

Q: And the LOAEL (rat [10])?
A: > 125 mg/kg/day

Q: And the NEL (rat [10])?
A: 5 mg/kg/day

Q: And the NOAEL (rat [10])?
A: ≥ 125 mg/kg/day

Q: `N#Cc1c(Cl)c(Cl)c(Cl)c(C#N)c1Cl` [Chlorothalonil] was tested. Which LEL (rat [11]; [30]) did it give?
A: 0.5 mg/kg/day

Q: What about the NEL (rat [11]; [30]) of the same compound?
A: < 0.5 mg/kg/day

Q: What about the LOAEL (rat [11]; [31]) of the same compound?
A: 10 mg/kg/day

Q: And the NOAEL (rat [11]; [31])?
A: 3 mg/kg/day

Q: And the LOAEL (rabbit [12]; systemic / in life observation / body weight / body weight gain + systemic / in life observation / food consumption / food consumption)?
A: 500 mg/kg/day

Q: And the NOAEL (rabbit [12]; systemic / in life observation / body weight / body weight gain + systemic / in life observation / food consumption / food consumption + …)?
A: 250 mg/kg/day

Q: And the LEL (rabbit [12]; [32])?
A: 250 mg/kg/day

Q: And the NEL (rabbit [12]; [32])?
A: < 250 mg/kg/day

Q: And the LEL (rat [13])?
A: 2.3 mg/kg/day

Q: What about the LOAEL (rat [13]) of the same compound?
A: 2.3 mg/kg/day

Q: What about the NEL (rat [13]) of the same compound?
A: < 2.3 mg/kg/day

Q: And the NOAEL (rat [13])?
A: < 2.3 mg/kg/day

Q: What about the LOAEL (mouse [14]; systemic / pathology microscopic / kidney / hyperplasia) of the same compound?
A: 26.2 mg/kg/day

Q: And the NEL (mouse [14]; [33])?
A: 1.5 mg/kg/day

Q: What about the NOAEL (mouse [14]; [33]) of the same compound?
A: 6 mg/kg/day

Q: And the LEL (mouse [14]; systemic / pathology microscopic / stomach / hyperkeratosis + systemic / pathology microscopic / stomach / hyperplasia)?
A: 6 mg/kg/day

Q: And the LEL (rat [15])?
A: 60 mg/kg/day

Q: And the LOAEL (rat [15])?
A: 60 mg/kg/day

Q: What about the NEL (rat [15]) of the same compound?
A: < 60 mg/kg/day

Q: And the NOAEL (rat [15])?
A: < 60 mg/kg/day

Q: What about the LEL (rat [16]) of the same compound?
A: 250 mg/kg/day

Q: What about the LOAEL (rat [16]) of the same compound?
A: 750 mg/kg/day

Q: And the NEL (rat [16])?
A: < 250 mg/kg/day

Q: What about the NOAEL (rat [16]) of the same compound?
A: 250 mg/kg/day

Q: And the LEL (mouse [17]; [34])?
A: 1.12 mg/kg/day

Q: And the NEL (mouse [17]; [34])?
A: < 1.12 mg/kg/day

Q: And the NOAEL (mouse [17]; systemic / pathology microscopic / stomach / hyperkeratosis + systemic / pathology microscopic / stomach / hyperplasia + systemic / clinical…)?
A: 2.25 mg/kg/day

Q: What about the LOAEL (mouse [17]; systemic / pathology microscopic / stomach / hyperkeratosis + systemic / pathology microscopic / stomach / hyperplasia + systemic / …) of the same compound?
A: 7.5 mg/kg/day

Q: What about the LOAEL (rat [18]; [35]) of the same compound?
A: 175 mg/kg/day

Q: And the NOAEL (rat [18]; [35])?
A: 15 mg/kg/day

Q: And the LEL (rat [18]; [36])?
A: 1.5 mg/kg/day

Q: What about the NEL (rat [18]; [36]) of the same compound?
A: < 1.5 mg/kg/day
